Laboratory results published in paper PMC4457528, “Identification of Novel Small Molecule Inhibitors of Oncogenic RET Kinase” (PLoS ONE, 2015).
Like-named read-outs stand apart in the source and are kept apart here.

Experiments:
Assay in all cases: KinomeScan kinase panel, single concentration 10 µM
Format in all cases: binding
KinomeScan kinase panel [1] = target: T1, KinomeScan kinase panel (Homo sapiens, UniProt P50750); settings: CDK9, 10 µM; read-out: score (%)
T1 construct: purchased DiscoveRx (KinomeScan)

KinomeScan kinase panel [2] = target: T2, KinomeScan kinase panel (Homo sapiens, UniProt Q00537); settings: PCTK2, 10 µM; read-out: score (%)
T2 construct: purchased DiscoveRx (KinomeScan)

KinomeScan kinase panel [3] = target: T3, KinomeScan kinase panel (Homo sapiens, UniProt P17612); settings: PKAC-alpha, 10 µM; read-out: score (%)
T3 construct: purchased DiscoveRx (KinomeScan)

KinomeScan kinase panel [4] = target: T4, KinomeScan kinase panel (Homo sapiens, UniProt P24723); settings: 10 µM, read-out: score (%)
T4 construct: purchased DiscoveRx (KinomeScan)

KinomeScan kinase panel [5] = target: T5, KinomeScan kinase panel (Homo sapiens, UniProt O75914); settings: PAK3, 10 µM; read-out: score (%)
T5 construct: purchased DiscoveRx (KinomeScan)

KinomeScan kinase panel [6] = target: T6, KinomeScan kinase panel (Homo sapiens, UniProt P00519, F317I); settings: 10 µM, read-out: score (%)
T6 construct: purchased DiscoveRx (KinomeScan)

KinomeScan kinase panel [7] = target: T7, KinomeScan kinase panel (Homo sapiens, UniProt O75582); settings: 10 µM, read-out: score (%)
T7 construct: purchased DiscoveRx (KinomeScan)

KinomeScan kinase panel [8] = target: T8, KinomeScan kinase panel (Homo sapiens, UniProt Q99683); settings: read-out: score (%)
T8 construct: purchased DiscoveRx (KinomeScan)
T8 sequence (Q99683 1-1374): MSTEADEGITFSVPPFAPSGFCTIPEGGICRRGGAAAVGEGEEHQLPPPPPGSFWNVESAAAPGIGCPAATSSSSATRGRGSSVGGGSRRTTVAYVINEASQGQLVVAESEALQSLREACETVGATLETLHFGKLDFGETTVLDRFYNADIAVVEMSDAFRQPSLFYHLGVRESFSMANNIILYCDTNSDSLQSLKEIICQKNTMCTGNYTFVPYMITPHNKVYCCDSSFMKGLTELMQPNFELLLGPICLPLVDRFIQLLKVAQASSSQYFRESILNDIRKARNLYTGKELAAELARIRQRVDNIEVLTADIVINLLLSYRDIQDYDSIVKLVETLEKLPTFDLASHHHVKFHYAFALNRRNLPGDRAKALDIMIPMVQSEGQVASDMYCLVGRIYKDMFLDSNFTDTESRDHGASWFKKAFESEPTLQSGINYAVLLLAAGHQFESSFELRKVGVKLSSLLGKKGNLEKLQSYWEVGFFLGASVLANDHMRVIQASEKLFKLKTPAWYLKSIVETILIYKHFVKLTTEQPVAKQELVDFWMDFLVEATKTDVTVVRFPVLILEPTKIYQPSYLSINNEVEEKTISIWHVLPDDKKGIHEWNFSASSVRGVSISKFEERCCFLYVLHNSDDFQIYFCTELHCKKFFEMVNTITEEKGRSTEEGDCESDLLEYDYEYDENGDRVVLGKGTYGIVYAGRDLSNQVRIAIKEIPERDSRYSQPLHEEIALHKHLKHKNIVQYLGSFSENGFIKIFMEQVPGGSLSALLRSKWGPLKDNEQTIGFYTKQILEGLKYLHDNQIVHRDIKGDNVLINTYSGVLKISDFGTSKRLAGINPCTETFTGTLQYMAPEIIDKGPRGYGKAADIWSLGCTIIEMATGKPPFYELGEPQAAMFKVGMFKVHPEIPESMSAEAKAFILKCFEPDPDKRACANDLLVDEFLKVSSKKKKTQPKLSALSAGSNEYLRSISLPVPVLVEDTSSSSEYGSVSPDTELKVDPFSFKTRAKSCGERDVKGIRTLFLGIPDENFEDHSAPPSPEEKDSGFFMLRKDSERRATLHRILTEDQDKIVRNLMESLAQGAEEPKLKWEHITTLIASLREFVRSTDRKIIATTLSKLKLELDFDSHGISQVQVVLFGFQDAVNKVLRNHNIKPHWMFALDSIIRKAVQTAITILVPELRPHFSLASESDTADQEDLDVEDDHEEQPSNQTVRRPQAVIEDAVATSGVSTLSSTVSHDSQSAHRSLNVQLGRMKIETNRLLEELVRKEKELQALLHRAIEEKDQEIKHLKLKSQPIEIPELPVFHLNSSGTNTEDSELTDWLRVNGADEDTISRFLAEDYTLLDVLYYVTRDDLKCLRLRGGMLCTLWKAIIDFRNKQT

KinomeScan kinase panel [9] = target: T9, KinomeScan kinase panel (Homo sapiens, UniProt P23458)
T9 construct: purchased DiscoveRx (KinomeScan)

KinomeScan kinase panel [10] = target: T10, KinomeScan kinase panel (Homo sapiens, UniProt P35968); settings: kinase VEGFR2; 10 µM; read-out: score (%)
T10 construct: purchased DiscoveRx (KinomeScan)

KinomeScan kinase panel [11] = target: T11, KinomeScan kinase panel (Homo sapiens, UniProt Q6PHR2); settings: kinase ULK3; 10 µM
T11 construct: purchased DiscoveRx (KinomeScan)
T11 sequence (Q6PHR2 1-472): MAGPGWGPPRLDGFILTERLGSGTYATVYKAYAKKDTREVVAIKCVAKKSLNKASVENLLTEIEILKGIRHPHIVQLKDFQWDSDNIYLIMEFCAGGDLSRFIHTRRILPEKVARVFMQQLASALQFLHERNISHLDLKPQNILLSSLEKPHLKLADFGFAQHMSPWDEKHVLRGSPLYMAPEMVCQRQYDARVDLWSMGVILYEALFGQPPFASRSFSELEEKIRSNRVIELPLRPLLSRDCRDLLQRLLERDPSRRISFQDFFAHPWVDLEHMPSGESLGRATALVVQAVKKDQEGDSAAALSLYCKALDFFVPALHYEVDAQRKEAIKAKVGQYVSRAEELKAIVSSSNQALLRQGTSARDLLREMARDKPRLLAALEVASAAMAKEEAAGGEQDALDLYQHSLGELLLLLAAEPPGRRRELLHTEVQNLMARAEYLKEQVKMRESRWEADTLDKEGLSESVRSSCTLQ

KinomeScan kinase panel [12] = target: T12, KinomeScan kinase panel (Homo sapiens, UniProt O75716); settings: read-out: score (%)
T12 construct: purchased DiscoveRx (KinomeScan)

[13] = kinase RPS6KA5(Kin.Dom.1-N-terminal)
[14] = kinase RPS6KA5(Kin.Dom.2-C-terminal)
[15] = JAK1(JH1domain-catalytic), 10 µM

T7 sequence (O75582 whole entry): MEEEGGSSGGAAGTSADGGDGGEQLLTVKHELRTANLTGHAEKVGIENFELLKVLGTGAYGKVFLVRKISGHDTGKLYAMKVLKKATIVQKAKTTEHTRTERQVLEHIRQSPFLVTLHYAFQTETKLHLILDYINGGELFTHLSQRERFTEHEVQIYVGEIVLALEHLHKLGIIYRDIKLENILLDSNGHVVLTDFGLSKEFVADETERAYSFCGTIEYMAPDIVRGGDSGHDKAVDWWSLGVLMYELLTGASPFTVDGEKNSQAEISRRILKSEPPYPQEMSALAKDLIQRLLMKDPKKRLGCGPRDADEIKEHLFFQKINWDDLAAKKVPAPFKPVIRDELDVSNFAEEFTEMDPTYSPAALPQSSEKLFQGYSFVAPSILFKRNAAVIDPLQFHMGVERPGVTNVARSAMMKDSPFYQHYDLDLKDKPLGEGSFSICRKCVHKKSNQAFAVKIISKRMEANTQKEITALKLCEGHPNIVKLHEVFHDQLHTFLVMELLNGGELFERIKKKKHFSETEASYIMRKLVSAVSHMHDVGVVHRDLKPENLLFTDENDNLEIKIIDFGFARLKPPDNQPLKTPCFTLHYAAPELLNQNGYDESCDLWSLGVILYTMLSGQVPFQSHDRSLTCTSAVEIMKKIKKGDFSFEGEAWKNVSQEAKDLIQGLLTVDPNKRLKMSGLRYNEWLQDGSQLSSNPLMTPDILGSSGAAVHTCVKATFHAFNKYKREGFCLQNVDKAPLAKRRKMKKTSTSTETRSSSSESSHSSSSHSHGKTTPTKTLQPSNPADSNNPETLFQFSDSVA
T5 sequence (O75914 whole entry): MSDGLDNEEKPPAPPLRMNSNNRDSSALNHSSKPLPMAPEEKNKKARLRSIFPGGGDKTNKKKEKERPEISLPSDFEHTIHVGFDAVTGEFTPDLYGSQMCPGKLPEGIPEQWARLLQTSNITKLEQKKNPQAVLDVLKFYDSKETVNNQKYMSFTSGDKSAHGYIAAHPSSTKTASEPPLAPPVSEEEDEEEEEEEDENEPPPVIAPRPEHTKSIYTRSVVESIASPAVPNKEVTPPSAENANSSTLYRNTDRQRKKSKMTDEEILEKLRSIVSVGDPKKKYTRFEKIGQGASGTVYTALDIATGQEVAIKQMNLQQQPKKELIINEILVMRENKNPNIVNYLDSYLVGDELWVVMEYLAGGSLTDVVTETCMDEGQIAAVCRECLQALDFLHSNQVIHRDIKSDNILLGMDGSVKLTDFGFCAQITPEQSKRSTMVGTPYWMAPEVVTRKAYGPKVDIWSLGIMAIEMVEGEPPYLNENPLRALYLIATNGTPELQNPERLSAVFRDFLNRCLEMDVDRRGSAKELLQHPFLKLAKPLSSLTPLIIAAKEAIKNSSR
T6 sequence (P00519 whole entry F317I): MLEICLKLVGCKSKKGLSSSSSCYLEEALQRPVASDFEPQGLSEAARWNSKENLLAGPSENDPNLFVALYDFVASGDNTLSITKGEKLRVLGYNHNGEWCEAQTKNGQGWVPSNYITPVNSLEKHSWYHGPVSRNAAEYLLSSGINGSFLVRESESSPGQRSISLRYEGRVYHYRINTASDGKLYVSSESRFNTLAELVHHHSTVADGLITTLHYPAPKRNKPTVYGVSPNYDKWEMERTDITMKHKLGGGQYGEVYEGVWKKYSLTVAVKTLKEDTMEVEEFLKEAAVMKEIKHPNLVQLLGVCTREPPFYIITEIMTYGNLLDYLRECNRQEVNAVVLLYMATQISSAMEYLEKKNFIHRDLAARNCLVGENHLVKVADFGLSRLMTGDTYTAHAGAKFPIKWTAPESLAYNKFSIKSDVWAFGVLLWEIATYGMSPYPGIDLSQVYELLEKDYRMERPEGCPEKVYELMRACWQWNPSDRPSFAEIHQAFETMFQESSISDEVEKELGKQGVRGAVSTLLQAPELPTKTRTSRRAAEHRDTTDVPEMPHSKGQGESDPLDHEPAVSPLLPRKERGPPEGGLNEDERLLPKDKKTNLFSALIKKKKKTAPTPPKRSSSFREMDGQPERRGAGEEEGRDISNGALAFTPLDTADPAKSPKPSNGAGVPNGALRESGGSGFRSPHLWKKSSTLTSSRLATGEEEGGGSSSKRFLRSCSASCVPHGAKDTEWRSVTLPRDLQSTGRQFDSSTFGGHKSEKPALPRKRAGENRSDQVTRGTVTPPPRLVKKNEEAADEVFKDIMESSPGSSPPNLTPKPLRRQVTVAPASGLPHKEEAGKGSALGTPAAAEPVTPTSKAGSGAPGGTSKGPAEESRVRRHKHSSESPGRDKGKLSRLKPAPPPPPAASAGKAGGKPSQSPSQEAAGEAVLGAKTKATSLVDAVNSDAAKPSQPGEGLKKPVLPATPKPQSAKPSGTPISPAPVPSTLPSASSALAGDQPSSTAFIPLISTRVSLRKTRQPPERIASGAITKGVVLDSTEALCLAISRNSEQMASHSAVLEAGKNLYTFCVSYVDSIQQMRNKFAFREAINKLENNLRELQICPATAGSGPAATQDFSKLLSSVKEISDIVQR
T4 sequence (P24723 whole entry): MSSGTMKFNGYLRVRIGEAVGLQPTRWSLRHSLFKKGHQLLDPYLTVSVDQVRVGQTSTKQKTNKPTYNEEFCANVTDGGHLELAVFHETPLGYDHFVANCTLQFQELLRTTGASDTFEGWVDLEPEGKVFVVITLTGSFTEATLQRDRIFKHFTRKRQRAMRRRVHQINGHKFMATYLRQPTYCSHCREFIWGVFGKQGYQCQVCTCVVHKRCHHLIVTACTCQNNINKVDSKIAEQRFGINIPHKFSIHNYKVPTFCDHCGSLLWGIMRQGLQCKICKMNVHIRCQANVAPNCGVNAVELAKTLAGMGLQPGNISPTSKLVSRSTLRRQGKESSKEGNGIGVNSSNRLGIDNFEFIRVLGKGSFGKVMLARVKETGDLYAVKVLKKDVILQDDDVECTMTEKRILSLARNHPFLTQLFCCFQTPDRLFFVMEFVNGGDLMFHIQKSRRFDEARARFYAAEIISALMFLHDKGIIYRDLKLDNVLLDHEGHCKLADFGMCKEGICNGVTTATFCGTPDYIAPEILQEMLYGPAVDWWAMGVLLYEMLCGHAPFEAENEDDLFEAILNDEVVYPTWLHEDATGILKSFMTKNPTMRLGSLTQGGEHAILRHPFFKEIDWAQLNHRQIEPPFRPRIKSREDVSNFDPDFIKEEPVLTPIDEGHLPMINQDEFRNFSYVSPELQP
T2 sequence (Q00537 whole entry): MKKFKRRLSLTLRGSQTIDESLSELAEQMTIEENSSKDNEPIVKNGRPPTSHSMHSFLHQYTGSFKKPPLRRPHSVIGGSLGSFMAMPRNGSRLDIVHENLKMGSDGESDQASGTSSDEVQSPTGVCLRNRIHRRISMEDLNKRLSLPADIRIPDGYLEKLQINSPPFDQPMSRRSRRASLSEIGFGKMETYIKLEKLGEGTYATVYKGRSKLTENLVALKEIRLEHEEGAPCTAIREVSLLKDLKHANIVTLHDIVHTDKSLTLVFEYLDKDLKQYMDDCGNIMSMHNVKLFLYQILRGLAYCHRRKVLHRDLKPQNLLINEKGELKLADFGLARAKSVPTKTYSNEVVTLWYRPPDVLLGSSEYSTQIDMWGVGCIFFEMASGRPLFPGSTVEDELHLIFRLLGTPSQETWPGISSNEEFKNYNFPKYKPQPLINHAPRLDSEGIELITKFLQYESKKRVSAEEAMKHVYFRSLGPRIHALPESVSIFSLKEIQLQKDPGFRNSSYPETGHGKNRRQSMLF
T9 sequence (P23458 whole entry): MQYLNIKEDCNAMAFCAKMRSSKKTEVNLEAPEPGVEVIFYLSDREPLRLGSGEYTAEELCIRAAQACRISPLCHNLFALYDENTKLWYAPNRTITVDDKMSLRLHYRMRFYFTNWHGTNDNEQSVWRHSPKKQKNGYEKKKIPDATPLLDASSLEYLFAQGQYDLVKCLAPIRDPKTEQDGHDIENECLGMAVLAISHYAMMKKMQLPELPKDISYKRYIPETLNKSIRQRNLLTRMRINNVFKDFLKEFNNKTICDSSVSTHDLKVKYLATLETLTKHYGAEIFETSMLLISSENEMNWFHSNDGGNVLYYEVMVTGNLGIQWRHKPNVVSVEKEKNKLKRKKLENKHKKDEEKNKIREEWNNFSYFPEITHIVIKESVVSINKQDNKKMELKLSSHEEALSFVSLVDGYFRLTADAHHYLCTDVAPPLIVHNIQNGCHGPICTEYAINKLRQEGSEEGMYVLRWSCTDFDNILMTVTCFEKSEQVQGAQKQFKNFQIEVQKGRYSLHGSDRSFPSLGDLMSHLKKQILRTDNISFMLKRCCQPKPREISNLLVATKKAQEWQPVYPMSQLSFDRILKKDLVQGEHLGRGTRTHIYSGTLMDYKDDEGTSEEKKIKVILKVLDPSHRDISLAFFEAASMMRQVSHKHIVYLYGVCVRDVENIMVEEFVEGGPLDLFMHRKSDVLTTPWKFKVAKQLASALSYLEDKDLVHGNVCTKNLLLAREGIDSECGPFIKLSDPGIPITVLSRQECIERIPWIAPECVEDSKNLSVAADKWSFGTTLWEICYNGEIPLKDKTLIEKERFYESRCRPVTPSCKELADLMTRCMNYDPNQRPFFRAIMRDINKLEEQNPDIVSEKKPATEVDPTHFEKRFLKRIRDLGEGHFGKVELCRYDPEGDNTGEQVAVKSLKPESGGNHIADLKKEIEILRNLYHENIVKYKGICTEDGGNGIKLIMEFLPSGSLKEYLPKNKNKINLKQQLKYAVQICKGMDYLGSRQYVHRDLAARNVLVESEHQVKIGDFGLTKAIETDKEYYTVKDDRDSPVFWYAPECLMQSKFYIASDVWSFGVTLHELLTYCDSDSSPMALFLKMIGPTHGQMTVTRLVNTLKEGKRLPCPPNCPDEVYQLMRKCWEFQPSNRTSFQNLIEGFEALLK

## CCN1CCN(Cc2ccc(NC(=O)c3ccc(C)c(NC(=O)c4cncc(-c5cccs5)c4)c3)cc2C(F)(F)F)CC1 [ALW-II-41-27]
KinomeScan kinase panel [1]
  remaining binding at 10 µM: > 30%
KinomeScan kinase panel [2]
  remaining binding at 10 µM: > 30%
KinomeScan kinase panel [3]
  remaining binding at 10 µM: 7.4%
KinomeScan kinase panel [4]; PRKCH
  remaining binding at 10 µM: 4.6%
KinomeScan kinase panel [5]
  remaining binding at 10 µM: > 30%
KinomeScan kinase panel [6]; ABL1(F317I)
  remaining binding at 10 µM: 0.2%
KinomeScan kinase panel [7]; [13]
  remaining binding at 10 µM: 11%
KinomeScan kinase panel [7]; [14]
  remaining binding at 10 µM: > 30%
KinomeScan kinase panel [8]; ASK1, 10 µM
  remaining binding at 10 µM: > 30%
KinomeScan kinase panel [9]
  score (%): nb (Hits values higher than 30% were considered negative (no binding: nb))
KinomeScan kinase panel [9]; [15]
  score (%): 14%
KinomeScan kinase panel [10]
  remaining binding at 10 µM: 1.8%
KinomeScan kinase panel [11]
  score (%): 0.95%
KinomeScan kinase panel [12]; kinase STK16, 10 µM
  remaining binding at 10 µM: > 30%

## CCN1CCN(Cc2ccc(NC(=O)c3ccc(C)c(/C=C/c4cnc5[nH]ccc5c4Cl)c3)cc2C(F)(F)F)CC1 [HG-6-63-01, (E)-3-(2-(4-chloro-1H-pyrrolo[2,3-b]pyridin-5-yl)vinyl)-N-(4-((4-ethylpiperazin-1-yl)methyl)-3-(trifluoromethyl)phenyl)-4-methylbenzamide]
KinomeScan kinase panel [1]
  remaining binding at 10 µM: > 30%
KinomeScan kinase panel [2]
  remaining binding at 10 µM: > 30%
KinomeScan kinase panel [3]
  remaining binding at 10 µM: > 30%
KinomeScan kinase panel [4]; PRKCH
  remaining binding at 10 µM: > 30%
KinomeScan kinase panel [5]
  remaining binding at 10 µM: 30%
KinomeScan kinase panel [6]; ABL1(F317I)
  remaining binding at 10 µM: 0.05%
KinomeScan kinase panel [7]; RPS6KA5(Kin.Dom.1)
  remaining binding at 10 µM: > 30%
KinomeScan kinase panel [7]; RPS6KA5(Kin.Dom.2)
  remaining binding at 10 µM: > 30%
KinomeScan kinase panel [8]; MAP3K5, 10 µM
  remaining binding at 10 µM: > 30%
KinomeScan kinase panel [9]; JAK1(Kin.Dom.1), 10 µM
  score (%): nb (Hits values higher than 30% were considered negative (no binding: nb))
KinomeScan kinase panel [9]; JAK1(Kin.Dom.2), 10 µM
  score (%): 11%
KinomeScan kinase panel [10]
  remaining binding at 10 µM: 0.35%
KinomeScan kinase panel [11]
  score (%): 23%
KinomeScan kinase panel [12]; STK16, 10 µM
  remaining binding at 10 µM: 18%

## CCN1CCN(Cc2ccc(NC(=O)c3ccc(C)c(C#Cc4cccnc4)c3)cc2C(F)(F)F)CC1 [XMD15-44]
KinomeScan kinase panel [1]
  remaining binding at 10 µM: > 30%
KinomeScan kinase panel [2]
  remaining binding at 10 µM: 8.2%
KinomeScan kinase panel [3]
  remaining binding at 10 µM: 8.4%
KinomeScan kinase panel [4]; kinase PRKCH
  remaining binding at 10 µM: 67%
KinomeScan kinase panel [5]
  remaining binding at 10 µM: 3.3%
KinomeScan kinase panel [6]; ABL1(F317I)-nonphosphorylated
  remaining binding at 10 µM: 8.8%
KinomeScan kinase panel [6]; ABL1(F317I)-phosphorylated
  remaining binding at 10 µM: 4%
KinomeScan kinase panel [7]; [13]
  remaining binding at 10 µM: 59%
KinomeScan kinase panel [7]; [14]
  remaining binding at 10 µM: 100%
KinomeScan kinase panel [8]; ASK1, 10 µM
  remaining binding at 10 µM: > 30%
KinomeScan kinase panel [9]; [15]
  score (%): 6.2%
KinomeScan kinase panel [9]; JAK1(JH2domain-pseudokinase), 10 µM
  score (%): nb (Hits values higher than 30% were considered negative (no binding: nb))
KinomeScan kinase panel [10]
  remaining binding at 10 µM: 0.25%
KinomeScan kinase panel [11]
  score (%): 0.25%
KinomeScan kinase panel [12]; kinase STK16, 10 µM
  remaining binding at 10 µM: 100%
